Measurements: patent US20200352914A1, “METHODS OF TREATING HYPERTENSION WITH ACTIVATORS OF TIE-2” (Aerpio Pharmaceuticals, Inc., priority 2019, published 2020)

Tests used:
Sprague-Dawley rats = test: MCT lung injury rat model of pulmonary hypertension (TABLE 30); format: in vivo; details: subset (n=3) of the monocrotaline group; s.c. injection at day 21
Method: The MCT lung injury rat model was used to assess the effects of a Tie-2 activator disclosed herein, Compound 2, as a vasodilator of the pulmonary vasculature. At day 0, rats were treated with a single dose of 60 mg/kg monocrotaline (N=5) and compared to control rats (N=5), which were treated with vehicle. Animals from both groups underwent normal rodent care until day 21. At day 21, rats underwent simultaneous cannulation of the carotid and pulmonary artery/right ventricle. Arterial pressure was measured before and after subcutaneous injection of vehicle. Following the washout period of time, rats underwent the same measurements before and after subcutaneous injection of Compound 2. Hemodynamic endpoints included systemic pressure (via carotid catheterization) and pulmonary vascular pressure (right ventricular systolic pressure) vs. true pulmonary arterial pressure.
FIG. 31 panel A illustrates the effects of Compound 2 on mean arterial blood pressure (ABP), heart rate, and right ventricular pressure. Each time point represents a beat-to-beat analysis for each variable over a 2-min period, which were then averaged. […] All animals received Compound 2 at time=0 min.
After obtaining hemodynamic data, the rats were euthanized to assess the extent of RV hypertrophy, a marker of PH. […] RV hypertrophy was calculated based on the Fulton index using the following weight ratio: (RV/(LV+S)).

[1] = tested on: endothelium-intact aortic rings from WT and Akita mice; test: Vascular reactivity of aortic rings from diabetic Ins2Akita mice and WT littermates (TABLE 29); parameters: species or system mouse; details: 10 μmol/L
Method: Aortic rings from eight to ten-week old male C57/BL6 mice were used to investigate the effects of Compound 2 on endothelial function. Twelve to fourteen-week old male Ins2^Akita mice and non-diabetic littermate controls were used to study the effects of Compound 2 on diabetes-associated endothelial dysfunction. Myograph experiments were performed in modified Krebs-Henseleit solution. Aortae were dissected free of adhering tissue, cut into 2-mm segments, and mounted in 5-mL myograph chambers under a basal tension of 1 g. Relaxation to cumulatively increasing concentrations (0.001-100 μmol/L) of Compound 2 or solvent (DMSO) was assessed in endothelium-intact aortic segments pre-contracted with phenylephrine (1 μmol/L) in the absence or presence of N^ω-nitro-L-arginine methyl ester (L-NAME; 300 μmol/L).
To determine whether VE-PTP inhibition affects endothelial dysfunction that accompanies diabetes, aortic rings were isolated from 12-week old diabetic Ins2^Akita(Akita) mice and their non-diabetic littermates.
FIG. 29 panels A-B illustrate the effects of Compound 2 on diabetes-induced endothelial dysfunction. FIG. 29 panel A illustrates the effects of Compound 2 on acetylcholine-induced relaxation of endothelium-intact aortic rings from WT and Akita mice.

With `CCc1nc([C@H](Cc2ccc(NS(=O)(=O)O)cc2)NC(=O)[C@H](Cc2ccccc2)NC(=O)OC)cs1` [Compound 2] the right ventricular pressure (Sprague-Dawley rats) was “significant drop in right ventricular pressure”, the “acetylcholine-induced and NO-mediated relaxation in aortic rings from diabetic mice” value ([1]; Ins2Akita mice) was “restored” and the “elevated phenylephrine-induced contraction of aortic rings” value ([1]; Ins2Akita mice) was “not influenced”. For the same molecule, the acetylcholine-induced endothelium-dependent relaxation ([1]; tissues from non-diabetic mice) was “potentiated responses”.
